Patent publication US8129532B2, “Amino(oligo)thiophene dyes, preparation thereof, and optical methods of use” (The University of Connecticut, priority 2007, dated 2012)

Key:
[1] = One-photon absorption and emission spectra in multilamellar lipid vesicles, water and ethanol; assay type: physicochemical; conditions: for Absorbance MLV: multilamellar lipid vesicles; for 1PF Abs. Max / 1PF Em. Max: one photon, soybean multi-lamellar lipid vesicles
Description: […] The column indicating relative signal change for one-photon fluorescence also lists the excitation light source used and the lower bounds of the long-pass emission detected.
Absorption and emission spectra were obtained for a series of dyes with different acceptors: pyridinium (PY-1261), quinolinium (PY-212), and acridinium (PY-2240).

[2] = One-photon fluorescence relative signal change per 100 mV; conditions: excitation / long-pass emission (nm) given
Description: The left-most data columns of Table 1 are the absorption and emission maxima for one photon fluorescence in soybean multi-lamellar lipid vesicles used to mimic the membrane environment. The column indicating relative signal change for one-photon fluorescence also lists the excitation light source used and the lower bounds of the long-pass emission detected.

[3] = system: NIE-115 mouse neuroblastoma; assay: Time-dependence (kinetics) of SHG and 2PF signal change after voltage-clamp step; assay type: cell-based; conditions: for SHG Kinetics (exponential time constant): time resolution 5 ms
Description: For full details of our non-linear imaging microscope, we refer the reader to previously published descriptions. A. C. Millard, P. J. Campagnola, W. Mohler, A. Lewis, and L. M. Loew, “Second Harmonic Imaging Microscopy,” Meth. Enzymol. 361, 47-69 (2003); Millard, A. C., L. Jin, and L. M. Loew, “Second Harmonic Generation Imaging Microscopy with a High Power Ultrafast Fiber Laser,”Commercial and Biomedical Applications of Ultrafast Lasers. 5714-5716, 92-98 (2005); A. C. Millard, L. Jin, M.-D. Wei, J. P. Wuskell, A. Lewis, and L. M. Loew, “Sensitivity of Second Harmonic Generation from Styryl Dyes to Transmembrane Potential,” Biophys. J. 86, 1169-1176 (2004). Our current microscope combines a Fluoview (Olympus) scan-head and an Axiovert (Zeiss) inverted microscope constructed for multiple imaging methodologies including wide-field, one-photon excitation fluorescence imaging, as well as SHG and 2PF imaging. Our laser sources include a Mira (Coherent) Ti:sapphire laser and a Femtopower (Fianium) fiber laser operating at 1064 nm. Millard, A. C., L. Jin, and L. M. Loew, “Second Harmonic Generation Imaging Microscopy with a High Power Ultrafast Fiber Laser,”Commercial and Biomedical Applications of Ultrafast Lasers. 5714-5716, 92-98 (2005). For excitation, we routinely use an IR-Achroplan (Zeiss) 40×, 0.8 NA water-immersion objective though for shorter wavelengths we also use an A-Plan (Zeiss) 40×, 0.65 NA air objective. Fluorescence is imaged (for linear imaging) or collected (for non-linear imaging) back through the excitation objective, while SHG is collected in the forward, transmitted light direction by a condenser, either 0.8 NA or 0.55 NA (Zeiss). For optimal collection, the numerical aperture of the condenser should be at least 1/√2 of the numerical aperture of the excitation objective (L. Moreaux, O. Sandre, S. Charpak, M. Blanchard-Desce, and J. Mertz, “Coherent Scattering in Multi-Harmonic Light Microscopy,” Biophys. J. 80, 1568-1574 (2001); L. Moreaux, O. Sandre, and J. Mertz. “Membrane Imaging by Second Harmonic Generation Microscopy,” J. Opt. Soc. Am. B. 17, 1685-1694 (2000)), though in practice a condenser of slightly lower numerical aperture will often suffice. Since the wavelength of second harmonic light is precisely half that of the excitation light, the choice of filter for SHG imaging is greatly simplified and the primary concern is the blocking of the excitation light that is also transmitted through the sample as well as fluorescence that is emitted forwards.
NIE-115 mouse neuroblastoma were cultured in DMEM with 10% fetal bovine serum and 1% antibiotic-antimycotic (Invitrogen, Carlsbad, Calif.) in a 60 mm plastic dish (353002, Becton Dickinson, Franklin Lakes, N.J.). The culture was maintained at 37° C. with 5% CO2 for a period of 48 hours prior to experimentation.
For experimentation the growth medium was replaced with 3 mL of Earle's Balanced Salt Solution (EBSS, Sigma, St. Louis, Mo.) with 20 mM HEPES (Merck Biosciences AG, Laufelfingen, Switzerland). The internal buffer, injected into the patch pipette, was a potassium aspartate (140 mM, Sigma, St. Louis, Mo.), sodium chloride (5 mM, Sigma, St. Louis, Mo.) and HEPES (10 mM) solution at a pH of 7.35. The pH was adjusted with potassium hydroxide and hydrochloric acid.
For characterizing the voltage-sensitivity of SHG and 2PF, we used a slow (˜0.1 Hz) switching protocol as previously described (A. C. Millard, P. J. Campagnola, W. Mohler, A. Lewis, and L. M. Loew, “Second Harmonic Imaging Microscopy,” Meth. Enzymol. 361, 47-69 (2003); Millard, A. C., L. Jin, and L. M. Loew, “Second Harmonic Generation Imaging Microscopy with a High Power Ultrafast Fiber Laser,” Commercial and Biomedical Applications of Ultrafast Lasers. 5714-5716, 92-98 (2005); A. C. Millard, L. Jin, M.-D. Wei, J. P. Wuskell, A. Lewis, and L. M. Loew, “Sensitivity of Second Harmonic Generation from Styryl Dyes to Transmembrane Potential,” Biophys. J. 86, 1169-1176 (2004)) with a 50 mV step. […]

| Absorbance ethanol [1] [nm] | Absorbance MLV [1] [nm] | 1PF Abs. Max [1] [nm] | 1PF Em. Max [1] [nm] | Absorbance water [1] [nm] | Structure (SMILES) | 1PF Change (ΔF/F-100 mv) [2] | SHG kinetics, in words [3] | SHG Kinetics (exponential time constant) [3] [ms] |
| --- | --- | --- | --- | --- | --- | --- | --- | --- |
| 614 | 547 | 547 | 686 | 539 | CCN(CC)c1ccc(-c2ccc(/C=C/c3cc[n+](CCC[N+](CC)(CC)CC)cc3)s2)s1 [PY-1261, Di-2-BTEPPTEA] | 5.0E−002; 625/>715 ΔF/F-100 mv | instantaneous | – |
| 616 | 547 | 547 | 692 | 567 | CCCN(CCC)c1ccc(-c2ccc(/C=C/c3cc[n+](CCC[N+](CC)(CC)CC)cc3)s2)s1 [PY-1286, Di-3-BTEPPTEA] | 1.8E−001; 640/>715 ΔF/F-100 mv | slower kinetic response | 27 ± 1 |
| 624 | 552 | 552 | 694 | 555 | CCCCN(CCCC)c1ccc(-c2ccc(/C=C/c3cc[n+](CCC[N+](CC)(CC)CC)cc3)s2)s1 [PY-1266, Di-4-BTEPPTEA] | 1.0E−001; 635/>715 ΔF/F-100 mv | slower kinetic response | 23 ± 2 |
